Reference: patent EP0365210A1, “Hydroxamic acid derivatives” (KYOWA HAKKO KOGYO CO., LTD., priority 1988, dated 1990)

Target: T1, leucocyte 5-lipoxygenase (Rattus norvegicus, UniProt P12527)
T1 construct: rat basophilic leukemia cells (RBL-1, ATCC No. CRL 1378) were used as the source of 5-lipoxygenase; host or cells: RBL-1 rat basophilic leukemia cells
T1 sequence (P12527 1-673): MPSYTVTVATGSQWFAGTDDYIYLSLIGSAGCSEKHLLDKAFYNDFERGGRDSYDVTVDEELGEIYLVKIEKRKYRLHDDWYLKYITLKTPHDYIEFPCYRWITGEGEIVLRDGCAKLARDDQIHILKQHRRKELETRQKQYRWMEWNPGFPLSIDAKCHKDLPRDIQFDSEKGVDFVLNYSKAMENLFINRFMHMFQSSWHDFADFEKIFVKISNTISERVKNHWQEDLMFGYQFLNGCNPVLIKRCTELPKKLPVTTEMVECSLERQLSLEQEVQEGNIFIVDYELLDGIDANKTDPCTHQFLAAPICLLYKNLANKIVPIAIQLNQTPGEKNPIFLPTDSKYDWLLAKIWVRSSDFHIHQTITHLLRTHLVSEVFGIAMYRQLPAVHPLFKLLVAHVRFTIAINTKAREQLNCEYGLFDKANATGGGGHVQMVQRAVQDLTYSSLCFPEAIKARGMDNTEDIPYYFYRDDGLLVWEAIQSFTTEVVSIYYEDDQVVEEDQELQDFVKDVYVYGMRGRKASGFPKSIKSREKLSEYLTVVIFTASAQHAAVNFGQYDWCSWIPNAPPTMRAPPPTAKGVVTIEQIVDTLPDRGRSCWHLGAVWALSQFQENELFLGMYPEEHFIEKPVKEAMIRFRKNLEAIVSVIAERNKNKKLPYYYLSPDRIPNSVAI
Experiment: Inhibitory activity against leucocyte 5-lipoxygenase (5-HETE formation by HPLC, RBL-1 cells as enzyme source)
Assay type: biochemical
Conditions: rat basophilic leukemia cells (RBL-1) as source of 5-lipoxygenase; arachidonic acid substrate; 37°C; pH 7.4
Method: a) Method for determining the inhibitory activity against leucocyte 5-lipoxygenase:
Lipoxygenase activity was determined by a modification of the method of B.A. Jakschik et al. [Biochem. Biophys. Res. Commun., 95, 103 (1980)]. That is, rat basophilic leukemia cells (RBL-1, ATCC No. CRL 1378) were used as the source of 5-lipoxygenase. The cells were contacted with a test compound in 60 µl of 0.17 M Trishydrochloride buffer (pH 7.4) containing […] calcium chloride, 3.3 mM adenosine triphosphate and 1 mM glutathione at 37°C for 5 minutes. Then,-50 µl of 60 µM arachidonic acid was added to the reaction mixture and the mixture was allowed to stand at 37° C for 5 minutes. To the mixture were added 200 µl of methanol and 13-hydroxylinoleic acid as the internal standard, followed by thorough shaking. The mixture was allowed to stand at -20 C for 30 minutes and then centrifuged at 12000 r.p.m. for 10 minutes. After the supernatant was evaporated to dryness in a stream of nitrogen, 200 µl of 75% aqueous methanol was added to the residue. The resulting solution (100 µl) was subjected to high performance liquid chromatography to quantitatively determine 5-HETE (5-hydroxyeicosatetraenoic acid). The absorption at 234 nm was measured with a UV absorption monitor and the amount of 5-HETE produced was determined from the peak area corrected by the peak of the internal standard. The test was carried out using the test compound at various concentrations and the concentration that inhibits 50% enzyme activity was determined as the inhibitory activity.

SMILES	IC50 [nM]
CCCCCCCCCCCN(O)C(=O)CCC(=O)OC [Compound 7]	38
CCCCCCCCCCCC(=O)N(O)CCCCCCCN1C(=O)CCC1=O [Compound 1]	20
CCCCCCCCCCCN(O)C(=O)CCC [Compound 11]	44
CCCCCCCCCCCC(=O)N(O)CCCCCN1C(=O)CCCC1=O [Compound 5]	36
CCCCCCCCCCCC(=O)N(O)CCCCCN1CCCC1=O [Compound 6]	25
CCCCCCCCCCCN(O)C(=O)c1ccccc1 [Compound 12]	300
CCCCCCCCCCCC(=O)N(O)CCCN1C(=O)CCC1=O [Compound 3]	20
CCCCCCCCCCCN(O)C(C)=O [Compound 10]	34
CCCCCCCCCCCN(O)C(=O)CCCCCN1C(=O)CCC1=O [Compound 2]	20
CCCCCCCCCCCC(=O)N(O)CCCCCN1C(=O)c2ccccc2C1=O [Compound 4]	40
